This is an account of results in ChEMBL document CHEMBL1201862, “PubChem BioAssay data set” (2004).

SMILES strings stand for the structures.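 Growth conditions: 96-well plates. Treatment: test compound, 48 hours, 5 concentrations. Analysis: linear interpolation between bracketing concentrations; unreached endpoints set to highest concentration. At the GI50, growth is halved.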 The source made the active and inactive calls. No stated cut-off is given here; in the data, active = GI50 up to about 1.1 µM and inactive = higher.

What all share (test): NCI tumour cell line growth inhibition, 48 h
The test system of assay [1] is HT-29.
Assay [2] relates to HCC 2998.
Assay [3] relates to TK-10.
Assay [4] concerns MDA-MB-435.
Assay [5] concerns SW-620.
In assay [6] the test system is COLO 205.
In assay [7] the test system is NCI-H226.
Assay [8] concerns 786-0.
In assay [9] the test system is NCI-H460.
Assay [10] deals with RXF 393.
Assay [11] concerns U-251.
For assay [12], the system named is OVCAR-8.
The subject of assay [13] is MDA-MB-231.
Assay [14] deals with Hs-578T.
The test system of assay [15] is OVCAR-5.
Assay [16] deals with DU-145.
Assay [17] deals with SNB-19.
Assay [18] has as its system BT-549.
Assay [19] concerns HOP-92.

On to `Cc1cc(S(=O)(=O)Nc2nc(N)n(-c3ccccc3)n2)c(S)cc1Cl`, for which the GI50 in assay [1], in [2], in assay [3], in assay [4], in assay [5] and in [6] was > 100 µM (inactive) throughout. Besides, the GI50 is > 100 µM (inactive) in [7]; > 100 µM (inactive) in [8]; > 100 µM (inactive) in assay [9]; > 100 µM (inactive) in [10]; 60 µM (inactive) in assay [11]; > 100 µM (inactive) in assay [12]. Also, the GI50 in assay [13] was > 100 µM (inactive); in assay [14] it was 70 µM (inactive); in [15], > 100 µM (inactive); in [16], > 100 µM (inactive); in assay [17], 43.1 µM (inactive); in assay [18], 45.1 µM (inactive).
Regarding `CCN(CC)CCNc1ccc([N+](=O)[O-])c2nc3ccccc3c(N)c12`, the GI50 was 0.359 µM (active) in [1]; 0.685 µM (active) in assay [3]; 0.481 µM (active) in assay [4]; 0.208 µM (active) in assay [5]; 0.162 µM (active) in [6]; 1.35 µM (inactive) in [7]. Further, the GI50 is 0.361 µM (active) in [8]; 0.291 µM (active) in [9]; 0.254 µM (active) in [10]; 0.682 µM (active) in assay [11]; 0.361 µM (active) in assay [12]; 0.755 µM (active) in assay [19]. Further, the GI50 was 0.41 µM (active) in assay [13]; 0.175 µM (active) in assay [14]; 0.621 µM (active) in assay [15]; 2.94 µM (inactive) in assay [16]; 0.615 µM (active) in assay [17]; 0.791 µM (active) in [18].
For the compound `Oc1cc2c(cc1C(c1ccc3c(c1)OCO3)N1CCN(C(c3ccc4c(c3)OCO4)c3cc4c(cc3O)OCO4)CC1)OCO2` (configuration not stated), the GI50 in [1] was 5.26 µM (inactive); in assay [3], 20.2 µM (inactive); in [4], 17.7 µM (inactive); in [5], 12.7 µM (inactive); in assay [6] it was 31 µM (inactive); in assay [7], 16.1 µM (inactive). The GI50 in assay [8] was 13.1 µM (inactive); in [9] it was 38.6 µM (inactive); in [10], 26.2 µM (inactive); in [11] it was 15.4 µM (inactive); in assay [12], 14 µM (inactive); in [19], 23.2 µM (inactive). In addition, the GI50 in assay [13] is 15.7 µM (inactive); in assay [14], 11.9 µM (inactive); in assay [15], 18.2 µM (inactive); in assay [16], 20.3 µM (inactive); in assay [17], 20.4 µM (inactive); in assay [18] it was 13.7 µM (inactive).
As for `NC(=O)/C(=C\c1ccncc1)c1cccc2ccccc12`, the GI50 in assay [1] was > 100 µM (inactive); in assay [3], > 100 µM (inactive); in [4] it was > 100 µM (inactive); in assay [5], > 100 µM (inactive); in assay [6], 50.5 µM (inactive); in assay [7] it was 38 µM (inactive). The GI50 is > 100 µM (inactive) in assay [8]; 45.1 µM (inactive) in assay [9]; > 100 µM (inactive) in assay [10]; > 100 µM (inactive) in assay [11]; > 100 µM (inactive) in assay [12]; > 100 µM (inactive) in assay [19]. Besides, the GI50 in [13] was > 100 µM (inactive); in assay [14], > 100 µM (inactive); in assay [15], > 100 µM (inactive); in assay [16], 67.8 µM (inactive); in [17] it was > 100 µM (inactive); in [18], > 100 µM (inactive).
